Laboratory results published in ChEMBL document CHEMBL1136504, “Novel bicyclic furanopyrimidines with dual anti-VZV and -HCMV activity” (Bioorg Med Chem Lett, 2003).

Tests used:
Human betaherpesvirus 5 [1] = assay: Antiviral activity evaluated against human cytomegalovirus (HCMV) AD169; format: functional, organism-based
Human alphaherpesvirus 3 [2] = assay: Concentration required to give 50% inhibition of replication of VZV OKA in tissue culture; format: functional, organism-based
HEL [3] = assay: Concentration required against HEL cell proliferation; format: functional; details: Homo sapiens
Human alphaherpesvirus 3 [4] = assay: Antiviral activity evaluated against thymidine kinase competent(TK+) Varicella Zoster virus (07); format: functional, organism-based
Human alphaherpesvirus 3 [5] = assay: Antiviral activity evaluated against thymidine kinase deficient(TK-) Varicella Zoster virus (YS); format: functional, organism-based
Human alphaherpesvirus 3 [6] = assay: Antiviral activity evaluated against Varicella Zoster virus (YS); format: functional, organism-based
HEL [7] = assay: Minimal cytotoxic concentration required to cause a morphological alteration of human embryonic lung fibroblast(HEL) cell cultures; format: functional
Human betaherpesvirus 5 [8] = assay: Antiviral activity evaluated against human cytomegalovirus (HCMV) Davis; format: functional, organism-based

`O=c1nc2oc(CCCCCCCCCOCC3CCCC3)cc2cn1[C@H]1C[C@H](O)[C@@H](CO)O1` was tested, and the EC50 (Human betaherpesvirus 5 [1]) was over 5 µM, the EC50 (Human alphaherpesvirus 3 [2]) was 0.09 µM and the CC50 (HEL [3]) was over 200 µM. For the same compound, the EC50 (Human alphaherpesvirus 3 [4]) was over 5 µM, the EC50 (Human alphaherpesvirus 3 [5]) was over 5 µM and the EC50 (Human alphaherpesvirus 3 [6]) was 0.1 µM. It also gave an MCC (HEL [7]) of at least 5 µM and an EC50 (Human betaherpesvirus 5 [8]) of 5 µM.
`CCCCOCCCCCCCCCc1cc2cn([C@H]3C[C@H](O)[C@@H](CO)O3)c(=O)nc2o1` showed an EC50 (Human betaherpesvirus 5 [1]) of over 5 µM, an EC50 (Human alphaherpesvirus 3 [2]) of 0.02 µM and a CC50 (HEL [3]) of over 200 µM. The EC50 (Human alphaherpesvirus 3 [4]) was over 5 µM, the EC50 (Human alphaherpesvirus 3 [5]) was over 5 µM and the EC50 (Human alphaherpesvirus 3 [6]) was 0.03 µM. The MCC (HEL [7]) was 20 µM and the EC50 (Human betaherpesvirus 5 [8]) was over 5 µM.
`CC(C)CCOCCCCCCCCCc1cc2cn([C@H]3C[C@H](O)[C@@H](CO)O3)c(=O)nc2o1` showed an EC50 (Human betaherpesvirus 5 [1]) of over 5 µM, an EC50 (Human alphaherpesvirus 3 [2]) of 0.05 µM and a CC50 (HEL [3]) of over 200 µM. The EC50 (Human alphaherpesvirus 3 [4]) was over 5 µM, the EC50 (Human alphaherpesvirus 3 [5]) was over 5 µM and the EC50 (Human alphaherpesvirus 3 [6]) was 0.06 µM. For the same compound, the MCC (HEL [7]) was 10 µM and the EC50 (Human betaherpesvirus 5 [8]) was 5 µM.
For `CCCCCOCCCCCCCCCc1cc2cn([C@H]3C[C@H](O)[C@@H](CO)O3)c(=O)nc2o1`, the EC50 (Human betaherpesvirus 5 [1]) was over 5 µM, the EC50 (Human alphaherpesvirus 3 [2]) was 0.01 µM and the CC50 (HEL [3]) was over 200 µM. The EC50 (Human alphaherpesvirus 3 [4]) was over 5 µM, the EC50 (Human alphaherpesvirus 3 [5]) was over 5 µM and the EC50 (Human alphaherpesvirus 3 [6]) was 0.02 µM. It also gave an MCC (HEL [7]) of 10 µM and an EC50 (Human betaherpesvirus 5 [8]) of over 5 µM.
In the case of `O=c1nc2oc(CCCCCCCCCOCCCCCl)cc2cn1[C@H]1C[C@H](O)[C@@H](CO)O1`, the EC50 (Human betaherpesvirus 5 [1]) is reported as 9.7 µM, the EC50 (Human alphaherpesvirus 3 [2]) is reported as 0.05 µM and the CC50 (HEL [3]) is reported as over 200 µM. It also gave an EC50 (Human alphaherpesvirus 3 [4]) of at least 200 µM, an EC50 (Human alphaherpesvirus 3 [5]) of at least 50 µM and an EC50 (Human alphaherpesvirus 3 [6]) of 0.03 µM. For the same compound, the MCC (HEL [7]) was at least 200 µM and the EC50 (Human betaherpesvirus 5 [8]) was 30 µM.
For `CCCCCCCOCCc1cc2cn([C@H]3C[C@H](O)[C@@H](CO)O3)c(=O)nc2o1`, the EC50 (Human alphaherpesvirus 3 [2]) was 6 µM.
`Nc1nc2c(ncn2COC(CO)CO)c(=O)[nH]1` [GANCICLOVIR] showed an EC50 (Human betaherpesvirus 5 [1]) of 4 µM, a CC50 (HEL [3]) of over 150 µM and an MCC (HEL [7]) of over 150 µM. The EC50 (Human betaherpesvirus 5 [8]) was 5.7 µM.
